Entries after “also recorded” stand apart in the source; their conditions may differ. Where two headings read alike, the source gives them in different places.
Key:
[1] = biological target: TbPEX3–TbPEX19 interaction (Trypanosoma brucei brucei, UniProt Q383Q3); test: AlphaScreen TbPEX3–TbPEX19 inhibitor screening and dose response; assay type: binding; details: for Activity scores (robust z-scores) / Note (activity in the screen): primary AlphaScreen screen, 10 μM compound
Method: The above solutions were prepared in the reaction buffer [0.5% BSA v/v, 0.05% Tween 80 v/v, 0.2 mM DTT, PBS (pH7.4)] on the day of assay, diluting the compounds from 1 mM stocks in DMSO. Compounds were incubated with the proteins for 30 min at room temperature (RT). Five microliters of AlphaScreen Nickel-chelate acceptor beads (cat. no. 6760619C, PerkinElmer®) and AlphaScreen Glutathione donor beads (cat. no. 6765300, PerkinElmer®) were distributed to the mixture consecutively, with a 15-min interval. The complete 25-μl reaction solutions were incubated for 45 min at RT in the dark, and Alpha signals were captured with Cytation 5 plate reader (BioTek®) with the gain value set at 180. Schematic representation of the experiment setup of the high-throughput screening assays was prepared with BioRender.com.
Following initial hit selection, 10 μM of drugs were tested with GST-His (54 nM) and TbPEX19/TbPEX3 (5 nM) in smaller scale, and the level of signal was normalized (in %) and compared.

[2] = ref ChemBridge, cited from earlier work; for Hacc (hydrogen bond acceptor) / Hdon (hydrogen bond donor): provided by the compound library supplier; for LogSw: supplier data
GST-TbPEX3d44 = test: NMR saturation transfer difference (STD) with GST-TbPEX3; assay type: binding, Trypanosoma brucei; details: for STD NMR effect with GST-TbPEX3: 10 μM protein, 300 µM ligand
Method: (§1) NMR saturation transfer difference (STD) experiments ([Mayer and Meyer, 1999]) were carried out on a Bruker AVIII 600-MHz spectrometer equipped with a cryoprobe and a SampleJet auto sampler. One-dimensional (1D) and STD spectra were acquired at 298 K. Compounds were dissolved in DMSO-d6 to a final concentration of 50 mM. STD experiments with GST-TbPEX3, TbPEX19-His, and GST-His were performed in PBS (pH 7.4), 10% D2O at a protein concentration of 10 μM, and a ligand concentration of 300 µM. Saturation time and interscan delay within STD experiments were set to 2 and 2.5 s, respectively.

GST-His = biological target: T1, GST-His (Schistosoma japonicum, UniProt P08515); test: NMR saturation transfer difference (STD) with GST-His control; assay type: binding; details: 10 μM protein, 300 µM ligand
T1 construct: made in house; host or cells: E. coli BL21(DE3)
T1 sequence (P08515 whole entry): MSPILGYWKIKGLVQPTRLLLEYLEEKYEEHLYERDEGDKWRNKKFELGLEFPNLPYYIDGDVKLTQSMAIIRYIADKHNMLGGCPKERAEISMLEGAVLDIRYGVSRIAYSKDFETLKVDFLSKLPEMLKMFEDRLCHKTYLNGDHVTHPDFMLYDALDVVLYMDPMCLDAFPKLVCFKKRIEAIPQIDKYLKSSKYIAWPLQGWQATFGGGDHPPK
Method: as §1

T. brucei BSF427 = test: T. brucei cell viability, resazurin-based assay; set-up: species or system Trypanosoma brucei
Method: BSF strain Lister 427 (termed hereafter as BSF427) and cell line 90-13 (stably expressing Tet repressor) were used in this study. BSF cells were grown in HMI-11 medium and maintained in logarithmic phase [below 2 × 10^6 cells/ml as described in [Kalel et al. (2019)]]. Genomically integrated stable transfections were performed with NotI-linearized plasmid constructs (pGN1-TbPEX11), which integrate into the spacer region of the ribosomal RNA repeat locus in the genome of cell line 90-13, and the clones were selected using blasticidin as described previously ([Kalel et al., 2015]). Expression of TbPEX11-GFP was confirmed with fluorescence microscopy following induction tests (data not shown) with a serial dilution of tetracycline, and minimal concentration (5 ng/ml) of tetracycline was used to achieve expression of the protein in more than 80% of the cells.
T. brucei BSF427 and compound dilutions were mixed in 1 : 1 (v/v) ratio to total volume of 200 μl, to reach final concentrations of 2 × 10^3 cells/ml and 0.19–100 μM of inhibitors, in quadruplicates in 96-well plates. Culture medium with no cells was used as negative control and cultures without presence of compounds as positive control representing normal rate of cell growth. Cells were grown at 37°C in an incubator with humidified air containing 5% CO2 for 3 days. Cell viabilities were measured quantitatively using resazurin dye, by adding 25-µl resazurin (0.1 mg/ml in HBSS) to each well, and the mixture incubated for 6 h in the incubator. Fluorescence emission was detected at 570 and 585 nm after excitation at 530 nm, and fluorescence at 570 nm was subtracted from 585 nm. The inhibition curves were fitted with normalized fluorescence signal (in percentage) against concentration of compounds in Log10 scale using GraphPad Prism, and best fit was used for EC50 estimation. Chemical structures were drawn with ChemDraw 20.0.

[3] = tested on: T. brucei bloodstream form parasites; test: Immunofluorescence microscopy of glycosomal aldolase localization; assay type: cell-based, Trypanosoma brucei; details: 24 h treatment
Method: BSF 90-13 cells with genomically integrated PEX11-GFP were induced with 5 ng/ml of tetracycline and cultured overnight to initiate stable expression of PEX11-GFP. BSF427- and PEX11-GFP–expressing cells were treated for 24 h with 100 μM, 50 and 25 μM of each of the inhibitor, and DMSO was used as control. Compound-treated cultures with growth rates of about 50% compared to the DMSO control were harvested and stained for immunofluorescence and statistical analysis. Cells were fixed with 4% paraformaldehyde in PBS containing 250 mM sucrose for 20 min. Fixed cells were immobilized on adhesive slide (StarFrost®) pre-coated with 10% (v/v) of poly-L-lysine (Sigma-Aldrich®) in water after 1-h incubation at RT. Cells were permeabilized with 0.1% (v/v) Triton X-100 in PBS (pH7.4) for 15 min and blocked in buffer D [PBS supplemented with 1% (w/v) BSA and 0.25% (v/v) Tween 20] for 1 h. Anti-TbAldolase primary antibody was used at 1:500 dilution in buffer D for 1.5 h incubation. After five washes in PBS for 30 min, samples were treated with Goat anti-rabbit secondary antibody (1:200, v/v, Alexa Fluor™ 594). Samples were washed, dried, and mounted with Mowiol containing 4′,6-diamidino-2-phenylindole (DAPI). Immuno-stained cells were visualized with Zeiss Elyra microscopy. Pictures of stack 3 (of 5), rotation 1 (of 3), and phase 5 (of 5) were chosen for all control and compound-treated samples.

[4] = Cytotoxicity test on HepG2 cells; details: human

TbPEX3–TbPEX19 interaction, sequence (Q383Q3 entry or part of it, other chains not shown): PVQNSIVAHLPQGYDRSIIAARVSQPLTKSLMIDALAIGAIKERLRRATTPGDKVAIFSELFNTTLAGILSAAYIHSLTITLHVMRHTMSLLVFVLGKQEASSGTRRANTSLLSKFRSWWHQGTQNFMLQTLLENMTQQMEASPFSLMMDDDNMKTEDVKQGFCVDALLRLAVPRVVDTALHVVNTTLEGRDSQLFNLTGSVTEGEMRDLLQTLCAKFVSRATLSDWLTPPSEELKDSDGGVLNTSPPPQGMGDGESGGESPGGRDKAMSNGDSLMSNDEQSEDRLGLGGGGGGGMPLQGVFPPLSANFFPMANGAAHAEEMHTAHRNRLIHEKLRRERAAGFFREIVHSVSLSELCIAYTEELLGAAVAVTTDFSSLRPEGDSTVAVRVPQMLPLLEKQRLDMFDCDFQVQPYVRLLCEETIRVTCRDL

SMILES: CC(=O)Nc1ccccc1NC(=O)CN(C)Cc1cnn(C)c1 [Compound 67602110, N~1~-[2-(acetylamino)phenyl]-N~2~-methyl-N~2~-[(1-methyl-1H-pyrazol-4-yl)methyl]glycinamide]
- Activity scores (robust z-scores) [1]: 0.7988
- Note (activity in the screen) [1]: Not active
- Hacc (hydrogen bond acceptor) [2]: 4
- Hdon (hydrogen bond donor) [2]: 2
- LogSw [2]: -2.21

SMILES: CNC(=O)c1cccc(NC(=O)C2CCOC(C)(C)C2)c1C (centres unmarked) [Compound 31960442, 2,2-dimethyl-N-{2-methyl-3-[(methylamino)carbonyl]phenyl}tetrahydro-2H-pyran-4-carboxamide]
- Activity scores (robust z-scores) [1]: 0.2733
- Note (activity in the screen) [1]: Not active
- Hacc (hydrogen bond acceptor) [2]: 3
- Hdon (hydrogen bond donor) [2]: 2
- LogSw [2]: -2.90

SMILES: CC(C)c1cc(C2CCCN2C(=O)c2ccc(-c3nnn(C)n3)cc2)no1 (centres unmarked) [Compound 54866350, 5-(4-{[2-(5-isopropylisoxazol-3-yl)pyrrolidin-1-yl]carbonyl}phenyl)-2-methyl-2H-tetrazole]
- Activity scores (robust z-scores) [1]: 2.5166
- Note (activity in the screen) [1]: Not active
- Hacc (hydrogen bond acceptor) [2]: 6
- Hdon (hydrogen bond donor) [2]: 0
- LogSw [2]: -2.94

SMILES: O=C(Cc1cccs1)N1C[C@H](O)[C@@H](N2CCCCC2)C1 (racemic) [Compound 41601289, rac-(3S,4S)-4-piperidin-1-yl-1-(2-thienylacetyl)pyrrolidin-3-ol]
- Activity scores (robust z-scores) [1]: 0.3122
- Note (activity in the screen) [1]: Not active
- Hacc (hydrogen bond acceptor) [2]: 3
- Hdon (hydrogen bond donor) [2]: 1
- LogSw [2]: -2.24

SMILES: COCCN(Cc1cn2ccc(C)cc2n1)Cc1nccs1 [Compound 79442734, (2-methoxyethyl)[(7-methylimidazo[1,2-a]pyridin-2-yl)methyl](1,3-thiazol-2-ylmethyl)amine]
- Note (activity in the screen) [1]: Active, require characterization
- Hacc (hydrogen bond acceptor) [2]: 4
- Hdon (hydrogen bond donor) [2]: 0
- LogSw [2]: -2.43

SMILES: CCN(Cc1nccn1C)Cc1nccn1-c1ccc(OC)cc1 [Compound 26410952, N-{[1-(4-methoxyphenyl)-1H-imidazol-2-yl]methyl}-N-[(1-methyl-1H-imidazol-2-yl)methyl]ethanamine]
- Note (activity in the screen) [1]: Active, require characterization
- Hacc (hydrogen bond acceptor) [2]: 4
- Hdon (hydrogen bond donor) [2]: 0
- LogSw [2]: -3.12

SMILES: CC(CCNC(=O)N1CCC(Oc2ncccn2)CC1)n1ccnc1 (centres unmarked) [Compound 6, N-[3-(1H-imidazol-1-yl)butyl]-4-(pyrimidin-2-yloxy)piperidine-1-carboxamide]
- Inhibition of TbPEX3–PEX19 interaction (in words) [1]: did not inhibit
- STD NMR effect with GST-TbPEX3 (GST-TbPEX3d44): show STD signal; also recorded: consistent STD effects
- Hacc (hydrogen bond acceptor) [2]: 5
- Hdon (hydrogen bond donor) [2]: 1
- LogSw [2]: -2.34

SMILES: c1ccc(-c2ncc(CNCCOc3cccc4cccnc34)cn2)nc1 [Compound 1, N-[(2-pyridin-2-ylpyrimidin-5-yl)methyl]-2-(quinolin-8-yloxy)ethanamine]
- IC50 [1]: 1 µM
- STD NMR effect with GST-TbPEX3 (GST-TbPEX3d44): significant STD effects; also recorded: strong STD signal
- Target protein (NMR analysis) (GST-TbPEX3d44; protein assigned as target, GST-TbPEX3, TbPEX19-His and GST-His tested): TbPEX3
- STD NMR effect with GST-His control (GST-His): not to GST-His; also recorded: not with TbPEX19 or GST
- EC50 (T. brucei BSF427; BSF427, 3 days of incubation, resazurin, read-out: T. brucei toxicity (EC50)): 33 µM
- EC50 (T. brucei BSF427; Trypanosoma brucei, 72 h, BSF427, 3 days of incubation, resazurin, read-out: T. brucei toxicity (EC50)): 32.7 µM
- Aldolase labeling phenotype (in words) [3]: diffused pattern of aldolase labeling
- Hacc (hydrogen bond acceptor) [2]: 6
- Hdon (hydrogen bond donor) [2]: 1
- LogSw [2]: -2.69
- EC50 ([4]; HepG2 cells, Human cell cytotoxicity (EC50), HepG2, serial dilutions of up to 200 µM): > 200 µM

SMILES: CCNC(=O)c1cc(NC(=O)C2CCOCC2)ccc1Cl [Compound 5, N-{4-chloro-3-[(ethylamino)carbonyl]phenyl}tetrahydro-2H-pyran-4-carboxamide]
- Inhibition of TbPEX3–PEX19 interaction (in words) [1]: did not inhibit
- STD NMR effect with GST-TbPEX3 (GST-TbPEX3d44): show STD signal; also recorded: consistent STD effects
- Hacc (hydrogen bond acceptor) [2]: 3
- Hdon (hydrogen bond donor) [2]: 2
- LogSw [2]: -2.58

SMILES: COc1cccc(N2CCN(C(=O)c3cccc(-c4cn[nH]c4)c3)CC2)c1 [Compound 92838291, 1-(3-methoxyphenyl)-4-[3-(1H-pyrazol-4-yl)benzoyl]piperazine]
- Activity scores (robust z-scores) [1]: 1.4019
- Note (activity in the screen) [1]: Not active
- Hacc (hydrogen bond acceptor) [2]: 3
- Hdon (hydrogen bond donor) [2]: 1
- LogSw [2]: -3.20

SMILES: CN[C@@H]1C[C@H](N)[C@@H](O)[C@H](O[C@H]2O[C@H](CO)[C@H](O)[C@@H]3O[C@@]4(O[C@@H]23)O[C@H]([C@H](N)CO)[C@H](O)[C@H](O)[C@H]4O)[C@H]1O [Hygromycin, reference compound]
- EC50 [4]: 16.2 µM

SMILES: Cc1cc(=O)n(CCN(Cc2ccccn2)CC2CCCO2)c(=O)[nH]1 (centres unmarked) [Compound 54483906, 6-methyl-3-{2-[(pyridin-2-ylmethyl)(tetrahydrofuran-2-ylmethyl)amino]ethyl}pyrimidine-2,4(1H,3H)-dione]
- Note (activity in the screen) [1]: Active, require characterization
- Hacc (hydrogen bond acceptor) [2]: 5
- Hdon (hydrogen bond donor) [2]: 1
- LogSw [2]: -1.32

SMILES: COc1cc(CN2CCCN(Cc3ccccn3)CC2)cc2c1OCO2 [Compound 25282511, 1-[(7-methoxy-1,3-benzodioxol-5-yl)methyl]-4-(pyridin-2-ylmethyl)-1,4-diazepane]
- Note (activity in the screen) [1]: Active, require characterization
- Hacc (hydrogen bond acceptor) [2]: 6
- Hdon (hydrogen bond donor) [2]: 0
- LogSw [2]: -0.93

SMILES: Cc1ccc(C(=O)Nc2ccc(S(=O)(=O)O)c3cc(S(=O)(=O)O)cc(S(=O)(=O)O)c23)cc1NC(=O)c1cccc(NC(=O)Nc2cccc(C(=O)Nc3cc(C(=O)Nc4ccc(S(=O)(=O)O)c5cc(S(=O)(=O)O)cc(S(=O)(=O)O)c45)ccc3C)c2)c1 [suramin, reference compound]
- EC50 (T. brucei BSF427; Trypanosoma brucei, 72 h, read-out: T. brucei EC50, BSF427, 3 days of incubation, resazurin, positive control): 0.037 µM
- EC50 (T. brucei BSF427; read-out: T. brucei EC50, BSF427, 3 days of incubation, resazurin, positive control): 0.0371 µM
